Key:
[1] = tested on: Prostate cancer C42 cells; test: Apoptosis assays: caspase-3 activity and time lapse video recording; format: cell-based; conditions: for concentration at which maximal caspase activation is achieved: comparison of PI3K inhibitors
Description: FIG. 6. […] Prostate cancer C42 cells were treated with 10 nM of TGFα-pseudomonas exotoxin chimera (PE) and 500 nM PI3K inhibitor ZSTK474 (ZSTK) or PI3K inhibitor LY294002 (LY) individually and in combination. A) Caspase activity was measured 3 h and 6 h after treatments began; B) Time lapse video-recording of C42 cells treated with 10 nM PE or combination of 10 nM PE and 500 nM ZSTK474. Representative images taken 2, 5, and 14 h after treatments began; C) Caspase activity measured 6 h after cells were treated with increasing concentrations of PE and 25 mcM of LY294002 (LY).
Western blotting—Tumors were excised, homogenized on ice in lysis buffer [10% glycerol, 50 mM PIPES-KOH (pH 7.4), 5 mM EDTA, 1% NP40, 1 mM DTT, protease and phosphatase inhibitors;] centrifuged 10 min 14,000 G to precipitate unsoluble fraction. Soluble fraction was resolved by SDS-PAGE followed by Western blotting on nitrocellulose. Nitrocellulose membranes were probed with antibodies to Akt and phospho-Akt according to manufacturer's instructions; the appropriate secondary antibodies were then applied and positive signals detected by enhanced chemiluminescence. Immunofluorescence—Cells were plated on glass coverslips in 6-well plates and treated and fixed with 10% formalin in PBS (pH 7.4) for 15 min. The cells were then blocked in 2.5% goat serum in PBS-T for 30 min at 37° C. Blocking solution was used to prepare a 1:300 mixture of mouse-J591 anti-PSMA antibodies subsequent procedures were done at room temperature. Incubation with primary antibodies was continued for 3 h. The cells were then washed three times with PBS-T and incubated with a mixture of goat antimouse antibodies conjugated with fluorescein, diluted in blocking solution at a ratio of 1:300 each. One h later, cells were washed with PBS-T, stained with DAPI, and mounted on glass microscope slides. Image analysis was done on a Nikon microscope equipped with a digital camera and software from Inovision (Durham, N.C.). Tumor Implantations—Nude mice (BALB/cAnNCrj-nu from Charles River) received four subcutaneous injections or two intratibial injections of 2×10^6 cells with Matrigel. Injections were made using an insulin syringe and a 27 gauge needle. All manipulations with animals were conducted in humane manner, in strict adherence with a protocol approved by institutional ACUC, which was designed to minimize animal suffering. Luminescence Imaging—Tumor growth was analyzed with a Xenogen IVIS® 100 optical imaging system (Caliper Life Sciences, Hopkinton, Mass.). Animals were immobilized for substrate injection and imaging through an attached gas anesthesia system consisting of 2% isoflurane/O2. To account for background and nonspecific luminescence, mice were imaged before injection of […]. Animals were injected with 100 μl of the firefly luciferase substrate luciferin (3.5 mg/ml in PBS) and imaged 15 minutes later in prone and supine positions (5 minutes each). Whole-body images were obtained using the Living Image® software provided with imaging system. A gray-scale photographic image and the bioluminescent color image are superimposed to provide anatomic registration of the light signal. A region of interest (ROI) was manually selected over the luminescent signal, and the intensity was recorded as photons/second within an ROI. Apoptosis Assays—Apoptosis in whole cell populations was quantified by measuring caspase-3 activity with the fluorogenic substrate Ac-DEVD-7-amido-4-trifluoromethyl-coumarin (Bachem) as specified by the manufacturer. For these experiments, attached and floating cells were collected and lysed in caspase lysis buffer (1% Nonidet P-40, 150 mM NaCl, 20 mM HEPES, 1 mM EDTA, 1 mM dithiothreitol, and 5 μg/ml aprotinin, leupeptin, and pepstatin). Fluorescence was recorded each 15 min for 1 h, and caspase activity was expressed in arbitrary units. […]

[2] = tested on: subcutaneous xenograft tumors; test: Luminescence imaging of subcutaneous xenograft tumors injected with LY294002; format: in vivo, mice; conditions: injections into subcutaneous xenograft tumors, versus DMSO
From the text: (§1) FIG. 4A) Representative luminescent images (superimposed on black and white images) of mice injected with solvent (DMSO) or LY294002. Injection site is indicated by arrow. FIG. 4B) Changes in luminescence of subcutaneous xenograft tumors injected with LY294002 or DMSO (error bars show standard deviations between 3 tumors injected with each agent). FIG. 4C) Tissue sections of xenograft tumors. Arrowheads point at apoptotic cells. FIG. 4D) Inhibition of Akt phosphorylation in xenografts injected with LY294002. Western blotting of tumor lysates.
(§2) Western blotting—Tumors were excised, homogenized on ice in lysis buffer [10% glycerol, 50 mM PIPES-KOH (pH 7.4), 5 mM EDTA, 1% NP40, 1 mM DTT, protease and phosphatase inhibitors;] centrifuged 10 min 14,000 G to precipitate unsoluble fraction. […] Nitrocellulose membranes were probed with antibodies to Akt and phospho-Akt according to manufacturer's instructions; the appropriate secondary antibodies were then applied and positive signals detected by enhanced chemiluminescence. […] Luminescence Imaging—Tumor growth was analyzed with a Xenogen IVIS® 100 optical imaging system (Caliper Life Sciences, Hopkinton, Mass.). […] To account for background and nonspecific luminescence, mice were imaged before injection of luciferase. […] Fluorescence was recorded each 15 min for 1 h, and caspase activity was expressed in arbitrary units. […]

PI3K [3] = test: Western blotting of tumor lysates for Akt phosphorylation; format: in vivo, mice; conditions: xenografts injected with LY294002
From the text: as §1, §2

PI3K [4] = conditions: J. Natl. Can. Inst. 2006, 98, 545-556; cited from earlier work

| Structure (SMILES) | concentration at which maximal caspase activation is achieved [1] [µM] | induction of apoptosis ([1]; 25 μM LY294002 in combination with 10 nM of TGFαPE40 fusion) | induction of apoptosis (caspase activity) ([1]; C42 cells, 25 mcM LY294002 with increasing concentrations of PE, 6 h) | tumor growth (luminescence of xenograft tumors) [2] | PI3K activity (Akt phosphorylation in xenografts) (PI3K [3]) | induction of apoptosis ([1]; 0.5 μM of ZSTK474 in combination with 10 nM of TGFαPE40 fusion) | induction of apoptosis (caspase activity, time lapse video) ([1]; C42 cells, 500 nM ZSTK474 with 10 nM TGFα-pseudomonas exotoxin chimera (PE), 3 h and 6 h) | PI3K inhibition relative to LY294002 (PI3K [4]) |
| --- | --- | --- | --- | --- | --- | --- | --- | --- |
| Cn1c(=O)n(-c2ccc(C(C)(C)C#N)cc2)c2c3cc(-c4cnc5ccccc5c4)ccc3ncc21 [BEZ235] | 5 | – | – | – | – | – | – | – |
| O=c1cc(N2CCOCC2)oc2c(-c3ccccc3)cccc12 [LY294002] | 25 | maximal induction of apoptosis | synergistic induction of apoptosis | inhibit | inhibit PI3K activity | – | – | – |
| FC(F)c1nc2ccccc2n1-c1nc(N2CCOCC2)nc(N2CCOCC2)n1 [ZSTK474] | 0.5 | – | – | – | – | maximal induction of apoptosis | synergistic induction of apoptosis | more efficiently than LY294002 |

From US20120237533A1, “Compositions and Methods for Inducing Apoptosis in Prostate Cancer Cells” (priority 2009, published 2012)
